Measurements published in PubChem BioAssay (NCI).
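Five compound concentrations were applied to cells in 96-well plates for 48 hours; endpoints were derived by simple linear interpolation of the resulting dose-response curve. At the GI50, growth is halved. TGI is the concentration that stops growth completely.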

What was measured:
Assay in all cases: NCI tumour cell line growth inhibition, 48 h
[1] = tested on: SK-MEL-2 melanoma
[2] = tested on: HT29 colon
[3] = tested on: COLO 205 colon
[4] = tested on: CCRF-CEM leukemia
[5] = tested on: TK-10 renal
[6] = tested on: SW-620 colon
[7] = tested on: SN12C renal
[8] = tested on: RPMI-8226 leukemia
[9] = tested on: CAKI-1 renal
[10] = tested on: SK-MEL-28 melanoma
[11] = tested on: HL-60(TB) leukemia
[12] = tested on: HS 578T breast
[13] = tested on: HCT-15 colon
[14] = tested on: HCT-116 colon
[15] = tested on: BT-549 breast
[16] = tested on: SK-MEL-5 melanoma
[17] = tested on: A549 NSCLC
[18] = tested on: U251 CNS
[19] = tested on: OVCAR-4 ovarian
[20] = tested on: K-562 leukemia
[21] = tested on: UACC-62 melanoma
[22] = tested on: SF-295 CNS
[23] = tested on: HCC-2998 colon
[24] = tested on: DU-145 prostate
[25] = tested on: NCI-H23 lung
[26] = tested on: PC-3 prostate
[27] = tested on: NCI-H226 lung
[28] = tested on: UACC-257 melanoma
[29] = tested on: 786-0 renal
[30] = tested on: MOLT-4 leukemia
[31] = tested on: SR leukemia
[32] = tested on: NCI-H522 lung
[33] = tested on: SNB-75 CNS
[34] = tested on: MCF7 breast
[35] = tested on: SF-539 CNS
[36] = tested on: HOP-92 NSCLC
[37] = tested on: NCI/ADR-RES ovarian
[38] = tested on: SK-OV-3 ovarian
[39] = tested on: KM12 colon
[40] = tested on: OVCAR-3 ovarian
[41] = tested on: EKVX NSCLC
[42] = tested on: MDA-MB-231 breast
[43] = tested on: RXF 393 renal
[44] = tested on: IGROV1 ovarian
[45] = tested on: MALME-3M melanoma
[46] = tested on: SF-268 CNS
[47] = tested on: ACHN renal
[48] = tested on: M14 melanoma
[49] = tested on: T-47D breast
[50] = tested on: LOX IMVI melanoma
[51] = tested on: UO-31 renal
[52] = tested on: SNB-19 CNS
[53] = tested on: NCI-H460 lung
[54] = tested on: OVCAR-8 ovarian
[55] = tested on: HOP-62 NSCLC
[56] = tested on: OVCAR-5 ovarian
[57] = tested on: A498 renal
[58] = tested on: MDA-MB-435

## Nc1c(Br)cc(Br)c2c1[nH]c(=O)c1ccccc12
[1]
  GI50: 20.7 µM
  TGI: 60.3 µM
[2]
  GI50: > 29.7 µM
  TGI: > 100 µM
[3]
  GI50: 22.1 µM
  TGI: > 100 µM
[4]
  GI50: 14 µM
  TGI: > 81.8 µM
[5]
  GI50: 3.67 µM
  TGI: 10.9 µM
[6]
  GI50: 23.1 µM
  TGI: > 100 µM
[7]
  GI50: 8.09 µM
  TGI: > 100 µM
[8]
  GI50: 9.89 µM
  TGI: > 100 µM
[9]
  GI50: 3.69 µM
  TGI: 21.3 µM
[10]
  GI50: > 45.9 µM
  TGI: > 100 µM
[11]
  GI50: > 100 µM
  TGI: > 100 µM
[12]
  GI50: 3.07 µM
  TGI: 30 µM
[13]
  GI50: 60.1 µM
  TGI: > 100 µM
[14]
  GI50: 3.98 µM
  TGI: 20.2 µM
[15]
  GI50: 7.05 µM
  TGI: 41 µM
[16]
  GI50: 34 µM
  TGI: > 100 µM
[17]
  GI50: 6.7 µM
  TGI: > 100 µM
[18]
  GI50: 5.08 µM
  TGI: 26.7 µM
[19]
  GI50: 1.34 µM
  TGI: 3.43 µM
[20]
  GI50: 37.3 µM
  TGI: > 100 µM
[21]
  GI50: 46.8 µM
  TGI: > 100 µM
[22]
  GI50: 3.1 µM
  TGI: 10.2 µM
[23]
  GI50: > 100 µM
  TGI: > 100 µM
[24]
  GI50: 23.6 µM
  TGI: > 100 µM
[25]
  GI50: 20.7 µM
  TGI: > 100 µM
[26]
  GI50: 14.4 µM
  TGI: > 100 µM
[27]
  GI50: 2.75 µM
  TGI: 12.7 µM
[28]
  GI50: 21.7 µM
  TGI: > 100 µM
[29]
  GI50: 2.72 µM
  TGI: 7.83 µM
[30]
  GI50: 18.4 µM
  TGI: > 63.8 µM
[31]
  GI50: 2.39 µM
  TGI: 5.91 µM
[32]
  GI50: 50.9 µM
  TGI: > 100 µM
[33]
  GI50: 1.36 µM
  TGI: 3.77 µM
[34]
  GI50: 0.577 µM
  TGI: > 100 µM
[35]
  GI50: 42 µM
  TGI: > 100 µM
[36]
  GI50: 1.96 µM
  TGI: 8.57 µM
[37]
  GI50: 6.68 µM
  TGI: 66.7 µM
[38]
  GI50: 2.85 µM
  TGI: 7.81 µM
[39]
  GI50: > 100 µM
  TGI: > 100 µM
[40]
  GI50: 11.5 µM
  TGI: 43.4 µM
[41]
  GI50: 1.36 µM
  TGI: 11.1 µM
[42]
  GI50: 2.36 µM
  TGI: 61.1 µM
[43]
  GI50: 4.7 µM
  TGI: 22.1 µM
[44]
  GI50: 4.85 µM
  TGI: 38.5 µM
[45]
  GI50: 3.43 µM
  TGI: 10.1 µM
[46]
  GI50: 9.72 µM
  TGI: > 69.3 µM
[47]
  GI50: 3.18 µM
  TGI: 10.4 µM
[48]
  GI50: 9.89 µM
  TGI: > 100 µM
[49]
  GI50: 2.41 µM
  TGI: 17.5 µM
[50]
  GI50: 20.5 µM
  TGI: > 100 µM
[51]
  GI50: 2.17 µM
  TGI: 5.9 µM
[52]
  GI50: 10.2 µM
  TGI: 57.5 µM
[53]
  GI50: 3.33 µM
  TGI: 14.6 µM
[54]
  GI50: 4.04 µM
  TGI: 26.5 µM
[55]
  GI50: 2.56 µM
  TGI: 6.39 µM
[56]
  GI50: 25.7 µM
  TGI: > 100 µM
[57]
  GI50: 1.68 µM
  TGI: 4.86 µM
[58]
  GI50: 19.5 µM
  TGI: > 100 µM

## O=c1c2ccccc2n(C[C@H]2CO2)c2ccccc12
[1]
  GI50: 1.96 µM
  TGI: 3.83 µM
[2]
  GI50: 2.24 µM
  TGI: 7.91 µM
[3]
  GI50: 1.49 µM
  TGI: 4.15 µM
[4]
  GI50: 0.771 µM
  TGI: 21.7 µM
[5]
  GI50: 2.34 µM
  TGI: 6.77 µM
[6]
  GI50: 0.828 µM
  TGI: 12.7 µM
[7]
  GI50: 1.8 µM
  TGI: 7.05 µM
[8]
  GI50: 1.94 µM
  TGI: 6.55 µM
[9]
  GI50: 1.83 µM
  TGI: 8.26 µM
[10]
  GI50: 2.4 µM
  TGI: 5.76 µM
[11]
  GI50: 1.28 µM
  TGI: 3.29 µM
[12]
  GI50: 2.05 µM
  TGI: 5.89 µM
[13]
  GI50: 1.68 µM
  TGI: 5.27 µM
[14]
  GI50: 1.12 µM
  TGI: 8.78 µM
[15]
  GI50: 1.91 µM
  TGI: 6.08 µM
[16]
  GI50: 1.52 µM
  TGI: 2.9 µM
[17]
  GI50: 2.45 µM
  TGI: 7.28 µM
[18]
  GI50: 1.82 µM
  TGI: 7.3 µM
[19]
  GI50: 2.4 µM
  TGI: 7.89 µM
[20]
  GI50: 2.2 µM
  TGI: > 100 µM
[21]
  GI50: 1.59 µM
  TGI: 3.11 µM
[22]
  GI50: 2.91 µM
  TGI: 9.44 µM
[23]
  GI50: 1.51 µM
  TGI: 3.44 µM
[24]
  GI50: 1.35 µM
  TGI: 5.85 µM
[25]
  GI50: 1.42 µM
  TGI: 4.52 µM
[26]
  GI50: 2.04 µM
  TGI: 8.34 µM
[28]
  GI50: 2.1 µM
  TGI: 4.46 µM
[29]
  GI50: 2.75 µM
  TGI: 8.17 µM
[30]
  GI50: 0.29 µM
  TGI: 2.35 µM
[31]
  GI50: 0.302 µM
  TGI: 4.37 µM
[32]
  GI50: 1.61 µM
  TGI: 3.74 µM
[33]
  GI50: 1.52 µM
  TGI: 3.46 µM
[34]
  GI50: 0.39 µM
  TGI: 2.98 µM
[35]
  GI50: 1.77 µM
  TGI: 3.68 µM
[36]
  GI50: 2.03 µM
  TGI: 5.27 µM
[37]
  GI50: 1.7 µM
  TGI: 6.25 µM
[38]
  GI50: 2.64 µM
  TGI: 7.33 µM
[39]
  GI50: 2.19 µM
  TGI: 7.02 µM
[40]
  GI50: 2.31 µM
  TGI: 7.19 µM
[41]
  GI50: 2.56 µM
  TGI: 6.44 µM
[42]
  GI50: 2.07 µM
  TGI: 5.24 µM
[43]
  GI50: 1.39 µM
  TGI: 2.82 µM
[44]
  GI50: 1.53 µM
  TGI: 5.6 µM
[45]
  GI50: 1.65 µM
  TGI: 3.19 µM
[46]
  GI50: 1.62 µM
  TGI: 5.97 µM
[47]
  GI50: 0.886 µM
  TGI: 3.9 µM
[48]
  GI50: 1.67 µM
  TGI: 3.9 µM
[49]
  GI50: 2.53 µM
  TGI: 8.38 µM
[50]
  GI50: 1.51 µM
  TGI: 3.15 µM
[51]
  GI50: 1.72 µM
  TGI: 4.96 µM
[52]
  GI50: 2.3 µM
  TGI: 7.79 µM
[53]
  GI50: 1.7 µM
  TGI: 4.43 µM
[54]
  GI50: 1.26 µM
  TGI: 5.35 µM
[55]
  GI50: 2.13 µM
  TGI: 5.84 µM
[56]
  GI50: 2.44 µM
  TGI: 6.41 µM
[57]
  GI50: 2.62 µM
  TGI: 6.57 µM
[58]
  GI50: 1.61 µM
  TGI: 3.24 µM
